This experiment relates to myopia-induced mouse. In words: Intraperitoneal injection of 4-PBA or TUDCA during myopia induction in mouse: axial elongation and refraction (Test Example 3). Conditions: 4-PBA 200 mg/kg/day intraperitoneal injection; 1st week and 3rd week of myopia induction (LIM). The protocol: Specifically, a myopia-induced mouse is produced as follows. It is noted that myopia induction, and measurement of an axial length and refraction were performed by methods similar to those described in Non Patent Literatures 6 and 7. First, a male C57BL6J mouse was put in a standard transparent cage under a 12/12 h light/dark cycle in a temperature controlled clean room. The animal was allowed to free access to standard feed and autoclaved tap water. A 3-week-old mouse immediately after weaning was anesthetized with a mixed anesthetic of three anesthetics, that is, Domitor (Nippon Zenyaku Kogyo Co., Ltd.), Butorphanol (Meiji Seika Pharma Co., Ltd.), and Midazolam (Sandoz K. K.), and the skull was exposed with scissors. As illustrated in FIG. 1(b), a post was provided to stand on the skull, and fixed with dental cements (Super-Bond, Sun Medical Company, Ltd.). The post was provided with a screw thread so that an adjustor described below could be fixed thereon with a nut.
For inducing myopia, a minus lens having a power of −30 diopters (D) (Rainbow Contact, RAINBOW OPTICAL LABORATORY CO., LTD.) was worn on the right eye (myopia-induced eye), and a lens having a power of 0 D or only a frame was worn as a control on the left eye (control eye). […] The protector used here was attached to be integral with the frame portion, but the protector needs not be integral with the lens as long as the lens is not damaged by the behavior of the mouse.
Sodium phenylbutyrate (Cayman Chemical, MI, USA) and tauroursodeoxycholic acid (Sigma Aldrich, Tokyo, Japan) were dissolved in PBS. STF080310 (Selleck Biotech, Tokyo, Japan) or 4μ8C (Selleck Biotech) of an IRE1 inhibitor, GSK2656157 (Selleck Biotech) or GSK2606414 (Selleck Biotech) of a PERK inhibitor, and Nelfinavir Mesylate hydrate (Tokyo Chemical Industry Co., Ltd.) or Ceapin-A7 (Sigma Aldrich) of an ATF6 inhibitor were dissolved in DMSO, and the resultant was diluted to 1:1000 with PBS to be used in an eyedrop test.
A solution of sodium phenylbutyrate in PBS (4-PBA; 200 mg/kg) or tauroursodeoxycholic acid (TUDCA; 100 mg/kg) was intraperitoneally injected (i.p.) every day during the myopia induction period.

The text below walks through data of patent US20240398736A1, “Eyedrops for Treating Scleral Thinning and Screening Method for Therapeutic Agent of Scleral Thinning” (Tsubota Laboratory, Inc., priority 2020, published 2024).

For sodium phenylbutyrate [4-PBA], the axial elongation result is listed as “the axial elongation is inhibited” and the myopic refraction result was “the myopic refraction is inhibited”.
